Assay results as given in PubChem BioAssay AID1259407 (Chemical Carcinogenesis Research Information System (CCRIS), 2018).
Calls of active or inactive are those of the source. No rule for the calls is given here.

Test system: CCRIS mutagenicity, Ames/micronucleus/aberration tests
Test: CCRIS mutagenicity studies
[1] = Test System: AMES SALMONELLA TYPHIMURIUM, Strain/Indicator: TA98, Metabolic Activation: NONE, Method: STANDARD PLATE
[2] = Test System: AMES SALMONELLA TYPHIMURIUM, Strain/Indicator: TA100, Metabolic Activation: NONE, Method: PREINCUBATION
[3] = Test System: AMES SALMONELLA TYPHIMURIUM, Strain/Indicator: TA100, Metabolic Activation: NONE, Method: STANDARD PLATE
[4] = Test System: AMES SALMONELLA TYPHIMURIUM, Strain/Indicator: TA1535, Metabolic Activation: NONE, Method: PREINCUBATION
[5] = Test System: AMES SALMONELLA TYPHIMURIUM, Strain/Indicator: TA1535, Metabolic Activation: NONE, Method: STANDARD PLATE

`CC(C)Nc1ccc(Nc2ccccc2)cc1` was tested, and the mutagenic call (Test System: AMES SALMONELLA TYPHIMURIUM, Strain/Indicator: TA98, Metabolic Activation: HAMSTER, LIVER, S-9, AROCLOR 1254 (10%), Method: PREINCUBATION) was “inactive; negative”, the mutagenic call (Test System: AMES SALMONELLA TYPHIMURIUM, Strain/Indicator: TA98, Metabolic Activation: NONE, Method: PREINCUBATION) was “inactive; negative” and the mutagenic call [1] was “inactive; negative”. The mutagenic call (Test System: AMES SALMONELLA TYPHIMURIUM, Strain/Indicator: TA98, Metabolic Activation: RAT LIVER S-9, PHENOBARBITAL AND BETA-NAPHTHOFLAVONE, Method: PREINCUBATION) was “inactive; negative”, the mutagenic call (Test System: AMES SALMONELLA TYPHIMURIUM, Strain/Indicator: TA98, Metabolic Activation: RAT, LIVER, S-9, AROCLOR 1254 (10%), Method: PREINCUBATION) was “inactive; negative” and the mutagenic call (Test System: AMES SALMONELLA TYPHIMURIUM, Strain/Indicator: TA98, Metabolic Activation: S-9, Method: STANDARD PLATE) was “inactive; negative”. For the same molecule, the mutagenic call (Test System: AMES SALMONELLA TYPHIMURIUM, Strain/Indicator: TA100, Metabolic Activation: HAMSTER, LIVER, S-9, AROCLOR 1254 (10%), Method: PREINCUBATION) was “inactive; negative”, the mutagenic call [2] was “inactive; negative” and the mutagenic call [3] was “inactive; negative”. The mutagenic call (Test System: AMES SALMONELLA TYPHIMURIUM, Strain/Indicator: TA100, Metabolic Activation: RAT LIVER S-9, PHENOBARBITAL AND BETA-NAPHTHOFLAVONE, Method: PREINCUBATION) was “inactive; negative”, the mutagenic call (Test System: AMES SALMONELLA TYPHIMURIUM, Strain/Indicator: TA100, Metabolic Activation: RAT, LIVER, S-9, AROCLOR 1254 (10%), Method: PREINCUBATION) was “inactive; negative” and the mutagenic call (Test System: AMES SALMONELLA TYPHIMURIUM, Strain/Indicator: TA100, Metabolic Activation: S-9, Method: STANDARD PLATE) was “inactive; negative”. For the same molecule, the mutagenic call (Test System: AMES SALMONELLA TYPHIMURIUM, Strain/Indicator: TA1535, Metabolic Activation: HAMSTER, LIVER, S-9, AROCLOR 1254 (10%), Method: PREINCUBATION) was “inactive; negative”, the mutagenic call [4] was “inactive; negative” and the mutagenic call (Test System: AMES SALMONELLA TYPHIMURIUM, Strain/Indicator: TA1535, Metabolic Activation: RAT LIVER S-9, PHENOBARBITAL AND BETA-NAPHTHOFLAVONE, Method: PREINCUBATION) was “inactive; negative”. The mutagenic call (Test System: AMES SALMONELLA TYPHIMURIUM, Strain/Indicator: TA1535, Metabolic Activation: RAT, LIVER, S-9, AROCLOR 1254 (10%), Method: PREINCUBATION) was “inactive; negative”, the mutagenic call (Test System: AMES SALMONELLA TYPHIMURIUM, Strain/Indicator: TA1537, Metabolic Activation: HAMSTER, LIVER, S-9, AROCLOR 1254 (10%), Method: PREINCUBATION) was “inactive; negative” and the mutagenic call (Test System: AMES SALMONELLA TYPHIMURIUM, Strain/Indicator: TA1537, Metabolic Activation: NONE, Method: PREINCUBATION) was “inactive; negative”. For the same molecule, the mutagenic call (Test System: AMES SALMONELLA TYPHIMURIUM, Strain/Indicator: TA1537, Metabolic Activation: RAT LIVER S-9, PHENOBARBITAL AND BETA-NAPHTHOFLAVONE, Method: PREINCUBATION) was “inactive; negative”, the mutagenic call (Test System: AMES SALMONELLA TYPHIMURIUM, Strain/Indicator: TA1537, Metabolic Activation: RAT, LIVER, S-9, AROCLOR 1254 (10%), Method: PREINCUBATION) was “inactive; negative” and the mutagenic call (Test System: AMES SALMONELLA TYPHIMURIUM, Strain/Indicator: TA1538, Metabolic Activation: NONE, Method: PREINCUBATION) was “inactive; negative”. For the same molecule, the mutagenic call (Test System: AMES SALMONELLA TYPHIMURIUM, Strain/Indicator: TA1538, Metabolic Activation: RAT LIVER S-9, PHENOBARBITAL AND BETA-NAPHTHOFLAVONE, Method: PREINCUBATION) was “inactive; negative”, the mutagenic call (Test System: E.COLI, Strain/Indicator: WP2UVRA, Metabolic Activation: NONE, Method: PREINCUBATION) was “inactive; negative” and the mutagenic call (Test System: E.COLI, Strain/Indicator: WP2UVRA, Metabolic Activation: RAT LIVER S-9, PHENOBARBITAL AND BETA-NAPHTHOFLAVONE, Method: PREINCUBATION) was “inactive; negative”.
With `O=C1C=CC(=O)C(c2ccc(Cl)cc2)=C1` the mutagenic call (End Point: In vitro micronucleus, Test System: Chinese hamster lung V79 cells, Metabolic Activation: None) was “active; positive”.
With `NNc1nc(-c2ccc(N)cc2)cs1` the mutagenic call (Test System: AMES SALMONELLA TYPHIMURIUM, Strain/Indicator: TA98, Metabolic Activation: RAT, LIVER, S-9, KC500 OR PHENOBARBITAL, Method: LIQUID SUSPENSION) was “active; positive” and the mutagenic call (Test System: AMES SALMONELLA TYPHIMURIUM, Strain/Indicator: TA100, Metabolic Activation: RAT, LIVER, S-9, KC500 OR PHENOBARBITAL, Method: LIQUID SUSPENSION) was “active; positive”.
For `C1CCC2(CC1)CO2`, the mutagenic call [3] was “inactive; negative”.
For `Clc1ccc(CN2[C@@H]3c4ccccc4-c4ccccc4[C@@H]32)cc1` (stereo partly specified), the mutagenic call [3] was “active; positive”.
With `c1ccc2c(CC3CO3)cccc2c1` (stereo unspecified) the mutagenic call [2] was “active; positive”, the mutagenic call [3] was “active; positive” and the mutagenic call (Test System: AMES SALMONELLA TYPHIMURIUM, Strain/Indicator: TA104, Metabolic Activation: NONE, Method: STANDARD PLATE) was “active; positive”. For the same molecule, the mutagenic call [4] was “active; positive”, the mutagenic call [5] was “active; positive” and the mutagenic call (Test System: AMES SALMONELLA TYPHIMURIUM, Strain/Indicator: TA4001, Metabolic Activation: NONE, Method: STANDARD PLATE) was “active; positive”. For the same molecule, the mutagenic call (Test System: AMES SALMONELLA TYPHIMURIUM, Strain/Indicator: TA4006, Metabolic Activation: NONE, Method: STANDARD PLATE) was “active; positive”.
`CSc1ccc(Cl)cc1` was tested, and the mutagenic call [1] was “inactive; negative”, the mutagenic call (Test System: AMES SALMONELLA TYPHIMURIUM, Strain/Indicator: TA98, Metabolic Activation: RAT, LIVER, S-9, AROCLOR 1254, Method: STANDARD PLATE) was “inactive; negative” and the mutagenic call [3] was “inactive; negative”. The mutagenic call (Test System: AMES SALMONELLA TYPHIMURIUM, Strain/Indicator: TA100, Metabolic Activation: RAT, LIVER, S-9, AROCLOR 1254, Method: STANDARD PLATE) was “inactive; negative”, the mutagenic call [5] was “inactive; negative” and the mutagenic call (Test System: AMES SALMONELLA TYPHIMURIUM, Strain/Indicator: TA1535, Metabolic Activation: RAT, LIVER, S-9, AROCLOR 1254, Method: STANDARD PLATE) was “inactive; negative”. The mutagenic call (Test System: AMES SALMONELLA TYPHIMURIUM, Strain/Indicator: TA1537, Metabolic Activation: NONE, Method: STANDARD PLATE) was “inactive; negative”, the mutagenic call (Test System: AMES SALMONELLA TYPHIMURIUM, Strain/Indicator: TA1537, Metabolic Activation: RAT, LIVER, S-9, AROCLOR 1254, Method: STANDARD PLATE) was “inactive; negative” and the mutagenic call (Test System: AMES SALMONELLA TYPHIMURIUM, Strain/Indicator: TA1538, Metabolic Activation: NONE, Method: STANDARD PLATE) was “inactive; negative”. For the same molecule, the mutagenic call (Test System: AMES SALMONELLA TYPHIMURIUM, Strain/Indicator: TA1538, Metabolic Activation: RAT, LIVER, S-9, AROCLOR 1254, Method: STANDARD PLATE) was “inactive; negative”.
With `C=CCC` the mutagenic call (Test System: AMES SALMONELLA TYPHIMURIUM, Strain/Indicator: TA98, Metabolic Activation: NONE, Method: GAS EXPOSURE) was “inactive; negative”, the mutagenic call (Test System: AMES SALMONELLA TYPHIMURIUM, Strain/Indicator: TA98, Metabolic Activation: RAT LIVER S-9, PHENOBARBITAL AND BETA-NAPHTHOFLAVONE (40%), Method: GAS EXPOSURE) was “inactive; negative” and the mutagenic call (Test System: AMES SALMONELLA TYPHIMURIUM, Strain/Indicator: TA100, Metabolic Activation: NONE, Method: GAS EXPOSURE) was “inactive; negative”. For the same molecule, the mutagenic call (Test System: AMES SALMONELLA TYPHIMURIUM, Strain/Indicator: TA100, Metabolic Activation: RAT LIVER S-9, PHENOBARBITAL AND BETA-NAPHTHOFLAVONE (40%), Method: GAS EXPOSURE) was “inactive; negative”, the mutagenic call (Test System: AMES SALMONELLA TYPHIMURIUM, Strain/Indicator: TA1535, Metabolic Activation: NONE, Method: GAS EXPOSURE) was “inactive; negative” and the mutagenic call (Test System: AMES SALMONELLA TYPHIMURIUM, Strain/Indicator: TA1535, Metabolic Activation: RAT LIVER S-9, PHENOBARBITAL AND BETA-NAPHTHOFLAVONE (40%), Method: GAS EXPOSURE) was “inactive; negative”. The mutagenic call (Test System: AMES SALMONELLA TYPHIMURIUM, Strain/Indicator: TA1537, Metabolic Activation: NONE, Method: GAS EXPOSURE) was “inactive; negative”, the mutagenic call (Test System: AMES SALMONELLA TYPHIMURIUM, Strain/Indicator: TA1537, Metabolic Activation: RAT LIVER S-9, PHENOBARBITAL AND BETA-NAPHTHOFLAVONE (40%), Method: GAS EXPOSURE) was “inactive; negative” and the mutagenic call (Test System: E.COLI, Strain/Indicator: WP2UVRA, Metabolic Activation: NONE, Method: GAS EXPOSURE) was “inactive; negative”. The mutagenic call (Test System: E.COLI, Strain/Indicator: WP2UVRA, Metabolic Activation: RAT LIVER S-9, PHENOBARBITAL AND BETA-NAPHTHOFLAVONE (40%), Method: GAS EXPOSURE) was “inactive; negative”.
